The results in this text go back to patent publication US12527874B2, “Bioorthogonal compositions” (TAMBO, INC., priority 2015, dated 2026).

Structures are written as SMILES. pIC50: −log10 of the molar value.

For data set [1], the system named is human soft tissue sarcoma (HT-1080) xenografts. The data set is described as follows: Inhibition of HT1080 xenograft growth (soft tissue sarcoma model, HMT injected near tumor). It is filed as in vivo, mice. Here is the method:
HMT was injected near the palpable soft tissue sarcoma tumors after 18 days when their size reached an average of 195 mm3 (range, 90-500 mm3). The mice were separated into two cohorts: (i) 3 intravenous doses of 14 μmoles/kg of doxorubicin every 4 days (maximum tolerable dose), (27, 49) or (ii) daily doses of 14 μmoles/kg of doxorubicin for 10 days (FIG. 18B). Tumor volumes were measured twice a week for 13 weeks (FIG. 18A). No further therapies were given to the subjects 28 days post tumoral implantation (dpi).

For data set [2] the following is noted: 3 days after the last treatment, after injection of HMT.
Experimental: Samples were collected 3 days after the last treatment. Data are means±SD (n=2).
Reticulocyte measurements. Two mice per condition were anesthetized with isoflurane anesthesia 3 days after the last treatment during the nadir of reticulocyte decrease. (27) Blood was collected by cardiac puncture in a syringe containing lithium heparin to prevent coagulation. RBC and reticulocyte concentrations were determined the same day using a DEXX ProCyte Dx Hematology Analyzer (IDEXX Laboratories, Inc.).
The conditions of data set [3]: xenograft mice, HMT injected.
The subject of a further data set is HT1080 cells. The data set is described as follows: MTT cytotoxicity assay. The note with it: read-out: 50% growth inhibitory concentration (IC50), 48 h treatment followed by additional 48 h in DMEM.

Experimental for HT1080 cells: Cells were treated with the drug or the pro-drug for 48 h, followed by additional 48 h in DMEM, prior to measuring their viability.
HT1080 cells were purchased from ATCC (cat. #CCL-121), and propagated in Dulbecco's modified Eagle's medium (DMEM; Meditech, Inc. Corning, Manassas, VA) containing 5% fetal bovine serum (FBS; HyClone, Logan Utah), supplemented with 100 U/ml penicillin, and 100 μg/ml streptomycin (Life Tech Corp., Grand Island, NY) at 37° C. in a 5% CO2 incubator.
Day one: using 96-well format, plated˜100 cells/well in 100 μL DMEM and incubated for 24 h. […] Day four: the medium was replaced with 100 μL of fresh DMEM and the cells were incubated for 48 h. Day six: DMEM was removed and the cells were incubated with 100 μL of MTT solution (0.6 mg/mL in DMEM) per well for 4 h at 37° C. The MTT solution was then replaced with 100 μL of DMSO containing 4% aqueous ammonia per well to dissolve the purple formazan crystals. After 30 min, the absorbance of each well at 550 nm was recorded using BioTek Synergy HT multi detection microplate reader. Results were averaged from three independent arrays of triplicate experiments.

With `COc1cccc2c1C(=O)c1c(O)c3c(c(O)c1C2=O)C[C@@](O)(C(=O)CO)C[C@@H]3O[C@H]1C[C@H](N)[C@H](O)[C@H](C)O1` [doxorubicin], the median tumor size entry is given as “undetectable” in data set [1] (2 weeks after the last treatment dose (40 dpi), HMT near tumor) and “greater than 2000 mm^3” in data set [1] (30 days after the last treatment dose (60 dpi), HMT near tumor). Besides, the “mice with a mild response” value in data set [1] (40 dpi, HMT near tumor) is reported as 1/5. Besides, the “mice that reached the study endpoint of 2000 mm3” value in data set [1] (by 88 dpi) is on record as 5/5. In addition, the reticulocyte counts result in data set [2] is listed as “dramatic decrease in reticulocytes”. Besides, in data set [3], the body weight lost entry is given as “about 20%”. Besides, the pIC50 in the data set with HT1080 cells was 7.74.
